The text below walks through data of ChEMBL document CHEMBL1201862, “PubChem BioAssay data set” (2004).

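Step 1: Grow cells in 96-well plates. Step 2: Expose to compound for 48 hours at 5 concentrations. Step 3: Interpolate endpoints linearly; if unreached, use highest concentration. The concentration for 50% growth inhibition is given as GI50.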 Activity calls are given as the source filed them. Cut-off read from the data, not from the text of the source: active = GI50 up to about 1.1 µM and inactive = higher. A value given as a limit tells only on which side of the number the result lay.

What all share (assay): DTP human tumour cell line panel, 48 h
Assay [1] concerns UACC-257.
In assay [2] the test system is PC-3.
The subject of assay [3] is MCF7.
Assay [4] deals with LOX IMVI.
For assay [5], the system named is HOP-92.
The test system of assay [6] is SK-MEL-5.
The subject of assay [7] is SK-MEL-28.
The subject of assay [8] is M14.
The test system of assay [9] is U-251.
Assay [10] deals with HCT-116.
Assay [11] concerns HCT-15.
In assay [12] the test system is HT-29.
Assay [13] concerns A498.
Assay [14] relates to OVCAR-5.
For assay [15], the system named is SK-OV-3.

For orientation: GI50 means the concentration giving 50% growth inhibition. For the compound `CC(=O)c1c(SCCN2CCOCC2)n(-c2ccccc2)c(=S)n(-c2ccccc2)c1=O`, the GI50 was 15.4 µM (inactive) in assay [1]; 17.3 µM (inactive) in assay [2]; 2.21 µM (inactive) in [3]; 8.39 µM (inactive) in assay [4]; 15.3 µM (inactive) in assay [5]; 17.3 µM (inactive) in assay [6]. Besides, the GI50 in [7] is 20.9 µM (inactive); in [8], 16.1 µM (inactive); in [9], 31.2 µM (inactive); in assay [10], 16.1 µM (inactive); in assay [11] it was 19.5 µM; in assay [12], 23.8 µM (inactive). Also, the results for the GI50 in assay [13], in [14] and in [15] were 11.5 µM (inactive), > 100 µM (inactive) and > 48.6 µM (inactive), respectively.

For the compound `OCCCNCc1ccccn1`, the GI50 in [1], in assay [2], in [3], in [4], in assay [5] and in assay [6] was > 100 µM (inactive) each time. In addition, the GI50 was > 100 µM (inactive) in assay [7]; > 100 µM (inactive) in [8]; > 100 µM (inactive) in assay [9]; > 100 µM (inactive) in assay [10]; over 100 µM in [11]; > 100 µM (inactive) in assay [12]. Moreover, the GI50 in assay [13], in assay [14] and in assay [15] was > 100 µM (inactive) in each case.

As to `N#CC[N+]1(Cc2ccccn2)CCCC1.O=S(=O)([O-])c1ccccc1`, the GI50 in [1], in assay [2], in assay [3], in assay [4], in assay [5] and in assay [6] was > 100 µM (inactive) throughout. Moreover, the GI50 was > 100 µM (inactive) in assay [7]; > 100 µM (inactive) in [8]; > 100 µM (inactive) in [9]; > 100 µM (inactive) in [10]; over 100 µM in assay [11]; > 100 µM (inactive) in [12]. The GI50 in [13], in assay [14] and in [15] was > 100 µM (inactive) in each case.

Consider `COc1ccc([C@@]23Oc4cc(OC)cc(OC)c4[C@]2(O)[C@H](O)[C@H](C(N)=O)[C@H]3c2ccccc2)cc1` [DIDESMETHYLROCAGLAMIDE], for which the GI50 is < 0.0162 µM (active) in assay [1]; < 0.01 µM (active) in assay [2]; < 0.01 µM (active) in [3]; < 0.01 µM (active) in assay [4]; < 0.01 µM (active) in [5]; < 0.01 µM (active) in [6]. Also, the GI50 in [7] is < 0.01 µM (active); in [8], < 0.01 µM (active); in assay [9], < 0.01 µM (active); in [10], < 0.01 µM (active); in assay [11] it was under 0.0142 µM; in assay [12], < 0.01 µM (active). Besides, the GI50 in [13] was < 0.01 µM (active); in [14], 0.0102 µM (active); in assay [15], < 0.01 µM (active).

For the compound `Cc1nc2ccc(S(=O)(=O)Nc3ccccn3)cc2c(=O)n1NS(=O)(=O)c1ccccn1`, the GI50 in [1], in assay [2], in [3], in assay [4], in [5] and in assay [6] was > 100 µM (inactive) throughout. For the same compound, the GI50 in assay [7] was > 100 µM (inactive); in assay [8] it was > 100 µM (inactive); in assay [9], > 100 µM (inactive); in [10], > 100 µM (inactive); in assay [11] it was over 100 µM; in assay [12] it was > 100 µM (inactive). Besides, the GI50 in assay [13], in [14] and in assay [15] was > 100 µM (inactive) in each case.

Regarding `CC(=O)N(C(C)=O)n1c(Cc2ccc(Cl)cc2)n[nH]c1=O`, the GI50 was > 100 µM (inactive) in assay [1]; > 100 µM (inactive) in assay [2]; > 100 µM (inactive) in assay [3]; > 88.5 µM (inactive) in assay [4]; > 100 µM (inactive) in assay [5]; > 100 µM (inactive) in assay [6]. Moreover, the GI50 in assay [7] was > 100 µM (inactive); in [8] it was > 100 µM (inactive); in [9] it was > 100 µM (inactive); in assay [10], > 100 µM (inactive); in [11], over 100 µM; in [12] it was > 100 µM (inactive). Further, the GI50 in [13], in assay [14] and in assay [15] was > 100 µM (inactive) each time.

Regarding `C=CCSC1=N/C(=C\c2ccc(C)cc2)C(=O)N1CC=C`, the GI50 in assay [1] is 25.6 µM (inactive); in assay [2], 22.2 µM (inactive); in assay [3], 20.9 µM (inactive); in assay [4] it was 26.5 µM (inactive); in [5], 11.7 µM (inactive); in assay [6], 14.3 µM (inactive). The GI50 in assay [7] is 45.7 µM (inactive); in assay [8], 29 µM (inactive); in assay [9], 22.7 µM (inactive); in [10], 18.4 µM (inactive); in assay [11], 25.3 µM; in [12] it was 13.9 µM (inactive). Also, the figures for the GI50 in assay [13], in assay [14] and in assay [15] were 13.6 µM (inactive), 25.4 µM (inactive) and 63.4 µM (inactive), respectively.

Regarding `CN(CC(=O)O)Cc1c[nH]c2ccccc12`, the GI50 in [1], in assay [2], in assay [3], in assay [4], in [5] and in assay [6] was > 100 µM (inactive) each time. Also, the GI50 is > 100 µM (inactive) in assay [7]; > 100 µM (inactive) in assay [8]; > 100 µM (inactive) in assay [9]; > 100 µM (inactive) in assay [10]; over 100 µM in [11]; > 100 µM (inactive) in assay [12]. Further, the GI50 in assay [13], in assay [14] and in [15] was > 100 µM (inactive) in each case.

Take `COC(=O)CCCCC/C(=C\C(=O)C(Cl)(Cl)Cl)OC`: the GI50 is 21.8 µM (inactive) in assay [1]; 27.8 µM (inactive) in assay [2]; 23.3 µM (inactive) in assay [3]; 20.9 µM (inactive) in assay [4]; 26.1 µM (inactive) in assay [5]; 38.8 µM (inactive) in [6]. The GI50 in assay [7] is 32.9 µM (inactive); in assay [8], 31.1 µM (inactive); in [9], 26.4 µM (inactive); in assay [10], 20.2 µM (inactive); in assay [11] it was 24.2 µM; in assay [12] it was 30.5 µM (inactive). For the same compound, the GI50 in [13] is 40.8 µM (inactive); in [14], > 100 µM (inactive); in assay [15], 61.4 µM (inactive).

Regarding `O=c1c2ncn(C3CCCCO3)c2n(-c2ccccc2)c(=S)n1-c1ccccc1` (stereo not given), the GI50 in [1] was 61.9 µM (inactive); in assay [2] it was 80.4 µM (inactive); in assay [3], 49.5 µM (inactive); in [4], 56.5 µM (inactive); in [5], 9.91 µM (inactive); in assay [6], > 74.3 µM (inactive). The GI50 in assay [7] was > 68.1 µM (inactive); in [8], > 92.5 µM (inactive); in assay [9] it was 14.5 µM (inactive); in assay [10], 45.5 µM (inactive); in assay [11] it was 55.3 µM; in [12], > 76.4 µM (inactive). In addition, the GI50 was 30.7 µM (inactive) in assay [13], > 61.1 µM (inactive) in [14] and 20.7 µM (inactive) in assay [15].

As for `COc1ccc(C=O)cc1OS(=O)(=O)C(F)(F)C(F)(F)C(F)(F)C(F)(F)F`, the GI50 was 36.6 µM (inactive) in assay [1]; 32.3 µM (inactive) in assay [2]; 26.1 µM (inactive) in [3]; 15.2 µM (inactive) in assay [4]; 13.2 µM (inactive) in assay [5]; 15.5 µM (inactive) in assay [6]. Besides, the GI50 in [7] is 24.4 µM (inactive); in assay [8] it was 28 µM (inactive); in assay [9] it was 22.9 µM (inactive); in [10], 27.2 µM (inactive); in [11] it was 26.9 µM; in [12], 29.9 µM (inactive). Besides, the GI50 in assay [13] was 3.72 µM (inactive); in assay [14], 50.7 µM (inactive); in assay [15], 30.4 µM (inactive).

Turning to `COC(=O)C12OC3CO[Si](C(C)C)(C(C)C)O[Si](C(C)C)(C(C)C)OC3C1Oc1nc(=O)ccn12` (stereo not given), the GI50 in assay [1] was 15.6 µM (inactive); in assay [2] it was 15.3 µM (inactive); in assay [3], 16 µM (inactive); in assay [4] it was 17.4 µM (inactive); in assay [5], 14.3 µM (inactive); in [6], 16.2 µM (inactive). The GI50 is 16.7 µM (inactive) in assay [7]; 17.8 µM (inactive) in assay [8]; 16.1 µM (inactive) in [9]; 16.1 µM (inactive) in assay [10]; 16.5 µM in [11]; 15.4 µM (inactive) in assay [12]. For the same compound, the GI50 in [13] was 23.7 µM (inactive); in [14] it was 15.2 µM (inactive); in assay [15], 17.3 µM (inactive).

Regarding `CSC1=C(C#N)C(=O)N(c2ccc(C)cc2)C(=O)C1C#N` (stereo not given), the GI50 in assay [1] was > 100 µM (inactive); in [2] it was > 100 µM (inactive); in assay [3] it was > 100 µM (inactive); in assay [4] it was > 100 µM (inactive); in [5], 25 µM (inactive); in [6] it was > 100 µM (inactive). Also, the GI50 in [7] was > 100 µM (inactive); in [8], > 100 µM (inactive); in [9], > 100 µM (inactive); in assay [10] it was > 100 µM (inactive); in assay [11], over 100 µM; in assay [12], > 100 µM (inactive). Also, the GI50 in [13] was 82.4 µM (inactive); in assay [14], > 100 µM (inactive); in assay [15], > 100 µM (inactive).
